# Data published in patent US20030072828A1, “Natural therapeutic composition for the treatment of wounds and sores” (priority 2001, published 2003).
# Legend:
# [1] = Personal experience: general traits of components; details: from personal experience
# Source text: (§1) From personal experience we have discovered the following traits associated with the specific components of the invention: […]
# [2] = Personal experience: component topically applied to the skin of the face; type: in vivo
# Source text: as §1
# [3] = Personal experience: component topically applied to scalds; type: in vivo
# Source text: as §1
molecule,measurement,setting,value
O=C1O[C@H]([C@@H](O)CO)C(O)=C1O [Vitamin C],trait of the component,[1],combating pain and inflammation
Vitamin A,appearance of the skin,[2],improved appearance of the skin
Vitamin E,pain and healing of the wound,[3],reduced pain and improved healing of the wound
